Where a SMILES comes first, the peptide text is derived from it. Bridges are numbered along the chain shown (N, C = ends).
Tests used:
[1] = biological target: T1, IKs (Homo sapiens, UniProt P51787); test: SafetyOne44 panel ion channels: IKs; assay type: cell-based
T1 construct: ICE Bioscience ICESTP SafetyOne44 Panel

[2] = biological target: T2, nAChRα4β2 (Homo sapiens, UniProt P17787+P43681); test: SafetyOne44 panel ion channels: nAChRα4β2; assay type: cell-based; conditions: nAChRα4β2, antagonist mode; read-out: Antagonist Reference Compounds IC50
T2 construct: ICE Bioscience ICESTP SafetyOne44 Panel

[3] = biological target: T3, 5-HTT (Homo sapiens, UniProt P31645); test: SafetyOne44 panel: 5-HTT; assay type: cell-based; conditions: read-out: Antagonist Reference Compound IC50
T3 construct: purchased ICE Bioscience ICESTP™ SafetyOne44 Panel

[4] = biological target: T4, NET (Homo sapiens, UniProt P23975); test: SafetyOne44 panel: NET; assay type: cell-based
T4 construct: ICE Bioscience ICESTP SafetyOne44 Panel

[5] = biological target: T5, DAT (Homo sapiens, UniProt Q01959); test: SafetyOne44 panel: DAT; assay type: cell-based; conditions: read-out: Antagonist Reference Compound IC50
T5 construct: purchased ICE Bioscience ICESTP™ SafetyOne44 Panel

[6] = biological target: T6, NR1/NR2B (Homo sapiens, UniProt Q05586+Q13224); test: SafetyOne44 panel ion channels: NR1/NR2B; assay type: cell-based
T6 construct: ICE Bioscience ICESTP SafetyOne44 Panel

[7] = biological target: T7, ETA (Homo sapiens, UniProt P25101); test: SafetyOne44 panel: ETA; assay type: cell-based
T7 construct: purchased ICE Bioscience ICESTP™ SafetyOne44 Panel
T7 sequence (P25101 21-427): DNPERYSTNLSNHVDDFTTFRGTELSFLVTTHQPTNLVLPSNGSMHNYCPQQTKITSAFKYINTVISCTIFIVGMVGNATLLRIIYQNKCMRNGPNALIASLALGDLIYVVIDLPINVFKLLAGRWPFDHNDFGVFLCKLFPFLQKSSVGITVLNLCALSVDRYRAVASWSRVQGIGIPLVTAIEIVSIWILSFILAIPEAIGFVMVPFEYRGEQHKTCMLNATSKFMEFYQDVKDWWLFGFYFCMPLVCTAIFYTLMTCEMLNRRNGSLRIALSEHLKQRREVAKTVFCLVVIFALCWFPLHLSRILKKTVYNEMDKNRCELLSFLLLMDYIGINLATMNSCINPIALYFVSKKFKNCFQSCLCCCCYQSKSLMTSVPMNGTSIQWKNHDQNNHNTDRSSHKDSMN

[8] = biological target: T8, CCK1 (Homo sapiens, UniProt P32238); test: SafetyOne44 panel: CCK1; assay type: cell-based; conditions: CCK1, antagonist mode; read-out: Antagonist Reference Compound IC50
T8 construct: purchased ICE Bioscience ICESTP™ SafetyOne44 Panel
T8 sequence (P32238 1-428): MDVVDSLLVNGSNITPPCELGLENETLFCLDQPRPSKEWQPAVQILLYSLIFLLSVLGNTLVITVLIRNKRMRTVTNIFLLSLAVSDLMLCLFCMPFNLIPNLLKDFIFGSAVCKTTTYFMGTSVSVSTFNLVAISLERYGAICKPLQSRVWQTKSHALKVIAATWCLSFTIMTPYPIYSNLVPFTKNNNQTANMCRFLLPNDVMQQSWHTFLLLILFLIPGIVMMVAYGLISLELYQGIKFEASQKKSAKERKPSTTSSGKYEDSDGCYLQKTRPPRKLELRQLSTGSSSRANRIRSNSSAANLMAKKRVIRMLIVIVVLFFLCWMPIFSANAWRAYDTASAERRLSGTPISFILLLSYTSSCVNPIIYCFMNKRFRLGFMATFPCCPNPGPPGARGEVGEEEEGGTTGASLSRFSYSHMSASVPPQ

[9] = biological target: T9, H2 (Homo sapiens, UniProt P25021); test: SafetyOne44 panel: H2; assay type: cell-based; conditions: H2, antagonist mode; read-out: Antagonist Reference Compound IC50
T9 construct: purchased ICE Bioscience ICESTP™ SafetyOne44 Panel

[10] = biological target: T10, 5-HT2B (Homo sapiens, UniProt P41595); test: cell-based; assay type: cell-based; conditions: read-out: Antagonist Reference Compound IC50
T10 construct: purchased ICE Bioscience ICESTP SafetyOne44 Panel

[11] = biological target: T11, 5-HT1B (Homo sapiens, UniProt P28222); test: cell-based; conditions: agonist mode, read-out: Agonist Reference Compound EC50
T11 construct: purchased ICE Bioscience ICESTP SafetyOne44 Panel

[12] = biological target: T12, LCK (Homo sapiens, UniProt P06239); test: biochemical; conditions: read-out: Antagonist Reference Compound IC50
T12 construct: purchased ICE Bioscience ICESTP™ SafetyOne44 Panel

[13] = biological target: T13, TRPC5 (Homo sapiens, UniProt Q9UL62); test: cell-based; conditions: for IC50: HEK293T, 100 nmol/L Englerin A, read-out: IC50, inhibition of TRPC5, calcium flux assay; for TRPC5 inhibitory activity in words (SAR): relative to compound 6
T13 sequence (Q9UL62 1-973): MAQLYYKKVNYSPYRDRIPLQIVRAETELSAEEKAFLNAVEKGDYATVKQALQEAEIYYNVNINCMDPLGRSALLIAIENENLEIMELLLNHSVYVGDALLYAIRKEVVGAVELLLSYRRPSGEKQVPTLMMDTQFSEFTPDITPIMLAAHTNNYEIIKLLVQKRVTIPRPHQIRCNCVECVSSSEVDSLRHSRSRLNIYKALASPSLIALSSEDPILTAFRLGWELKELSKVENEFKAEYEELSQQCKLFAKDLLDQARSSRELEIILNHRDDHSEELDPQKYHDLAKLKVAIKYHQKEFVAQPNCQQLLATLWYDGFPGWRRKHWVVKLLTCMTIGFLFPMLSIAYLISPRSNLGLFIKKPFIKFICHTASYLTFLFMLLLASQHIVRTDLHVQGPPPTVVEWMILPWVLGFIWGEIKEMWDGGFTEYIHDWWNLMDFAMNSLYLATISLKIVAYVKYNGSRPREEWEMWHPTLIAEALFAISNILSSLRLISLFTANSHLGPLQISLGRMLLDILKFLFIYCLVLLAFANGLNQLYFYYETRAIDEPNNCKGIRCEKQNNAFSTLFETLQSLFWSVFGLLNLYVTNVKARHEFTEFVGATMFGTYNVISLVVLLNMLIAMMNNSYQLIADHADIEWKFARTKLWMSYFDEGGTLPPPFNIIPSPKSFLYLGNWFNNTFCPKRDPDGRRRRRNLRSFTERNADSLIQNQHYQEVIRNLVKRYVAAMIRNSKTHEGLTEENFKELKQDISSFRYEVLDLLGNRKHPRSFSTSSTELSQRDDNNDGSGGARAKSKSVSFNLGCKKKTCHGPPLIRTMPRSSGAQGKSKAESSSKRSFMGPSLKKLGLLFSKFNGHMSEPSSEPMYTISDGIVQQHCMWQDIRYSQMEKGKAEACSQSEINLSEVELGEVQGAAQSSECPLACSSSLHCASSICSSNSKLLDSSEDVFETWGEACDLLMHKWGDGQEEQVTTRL

T6 sequence (Q13224 27-1484, other chains not shown): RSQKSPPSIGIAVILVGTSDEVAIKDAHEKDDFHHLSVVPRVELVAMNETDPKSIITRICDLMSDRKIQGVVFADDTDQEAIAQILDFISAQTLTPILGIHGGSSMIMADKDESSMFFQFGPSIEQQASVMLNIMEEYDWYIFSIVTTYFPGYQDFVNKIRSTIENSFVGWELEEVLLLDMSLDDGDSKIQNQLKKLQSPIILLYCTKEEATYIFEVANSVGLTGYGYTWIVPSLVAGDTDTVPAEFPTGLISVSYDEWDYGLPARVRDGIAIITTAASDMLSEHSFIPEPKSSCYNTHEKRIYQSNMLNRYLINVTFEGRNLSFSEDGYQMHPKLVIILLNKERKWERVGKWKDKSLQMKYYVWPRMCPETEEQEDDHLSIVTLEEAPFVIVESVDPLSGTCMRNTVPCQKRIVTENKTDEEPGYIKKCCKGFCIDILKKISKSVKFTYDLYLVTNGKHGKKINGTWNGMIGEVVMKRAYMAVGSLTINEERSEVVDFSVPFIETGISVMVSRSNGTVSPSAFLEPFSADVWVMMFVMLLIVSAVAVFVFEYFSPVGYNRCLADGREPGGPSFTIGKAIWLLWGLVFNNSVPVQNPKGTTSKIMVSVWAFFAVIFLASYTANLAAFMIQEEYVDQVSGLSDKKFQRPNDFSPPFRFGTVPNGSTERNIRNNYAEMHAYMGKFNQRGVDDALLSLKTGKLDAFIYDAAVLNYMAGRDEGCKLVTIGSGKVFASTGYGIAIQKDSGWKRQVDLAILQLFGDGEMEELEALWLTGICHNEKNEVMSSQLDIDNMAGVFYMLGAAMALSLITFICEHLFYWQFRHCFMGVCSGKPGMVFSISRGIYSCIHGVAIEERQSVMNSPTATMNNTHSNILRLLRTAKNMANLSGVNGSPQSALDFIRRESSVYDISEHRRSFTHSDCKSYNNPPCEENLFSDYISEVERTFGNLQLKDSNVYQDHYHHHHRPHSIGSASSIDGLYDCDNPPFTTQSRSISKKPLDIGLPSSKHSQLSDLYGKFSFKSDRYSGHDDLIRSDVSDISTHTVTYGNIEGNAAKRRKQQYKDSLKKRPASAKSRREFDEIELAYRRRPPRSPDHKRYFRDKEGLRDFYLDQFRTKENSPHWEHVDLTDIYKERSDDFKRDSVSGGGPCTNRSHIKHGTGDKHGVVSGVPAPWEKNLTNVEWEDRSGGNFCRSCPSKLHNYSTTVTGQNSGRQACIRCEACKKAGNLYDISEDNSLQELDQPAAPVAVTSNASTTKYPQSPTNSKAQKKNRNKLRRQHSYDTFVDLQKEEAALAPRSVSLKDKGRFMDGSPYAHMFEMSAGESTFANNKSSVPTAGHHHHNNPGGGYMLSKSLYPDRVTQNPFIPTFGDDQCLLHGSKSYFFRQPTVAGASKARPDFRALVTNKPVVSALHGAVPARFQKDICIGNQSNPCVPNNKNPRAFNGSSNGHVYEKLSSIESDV
T1 sequence (P51787 whole entry): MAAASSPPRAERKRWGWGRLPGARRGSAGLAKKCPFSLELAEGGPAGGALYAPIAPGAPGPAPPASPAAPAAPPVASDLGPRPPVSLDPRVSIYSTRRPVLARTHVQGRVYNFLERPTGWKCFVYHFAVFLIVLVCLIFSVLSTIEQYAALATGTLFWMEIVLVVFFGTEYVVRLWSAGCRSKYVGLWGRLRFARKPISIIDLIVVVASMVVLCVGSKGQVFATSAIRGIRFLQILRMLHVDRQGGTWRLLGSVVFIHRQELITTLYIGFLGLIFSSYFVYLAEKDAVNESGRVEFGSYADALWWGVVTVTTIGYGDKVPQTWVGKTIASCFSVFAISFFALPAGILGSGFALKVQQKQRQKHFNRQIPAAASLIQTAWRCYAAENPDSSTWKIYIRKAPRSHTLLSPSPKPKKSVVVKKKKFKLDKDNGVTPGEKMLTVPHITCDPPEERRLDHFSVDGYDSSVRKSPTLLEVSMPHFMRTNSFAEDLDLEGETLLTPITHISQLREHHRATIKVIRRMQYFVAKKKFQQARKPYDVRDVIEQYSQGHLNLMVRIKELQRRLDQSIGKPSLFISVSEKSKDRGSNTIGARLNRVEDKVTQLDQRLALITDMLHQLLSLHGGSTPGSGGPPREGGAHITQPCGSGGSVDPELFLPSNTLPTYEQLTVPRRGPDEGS
T11 sequence (P28222 whole entry): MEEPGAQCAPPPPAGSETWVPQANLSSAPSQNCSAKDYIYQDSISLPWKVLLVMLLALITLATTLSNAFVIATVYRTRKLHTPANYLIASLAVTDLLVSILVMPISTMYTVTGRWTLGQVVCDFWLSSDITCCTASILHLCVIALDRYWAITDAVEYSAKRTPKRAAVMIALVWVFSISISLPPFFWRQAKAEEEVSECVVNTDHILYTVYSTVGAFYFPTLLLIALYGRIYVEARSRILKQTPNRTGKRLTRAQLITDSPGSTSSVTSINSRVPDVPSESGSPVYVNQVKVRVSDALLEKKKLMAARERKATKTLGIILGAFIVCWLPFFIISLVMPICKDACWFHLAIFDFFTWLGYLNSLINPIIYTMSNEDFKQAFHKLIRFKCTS
T4 sequence (P23975 whole entry): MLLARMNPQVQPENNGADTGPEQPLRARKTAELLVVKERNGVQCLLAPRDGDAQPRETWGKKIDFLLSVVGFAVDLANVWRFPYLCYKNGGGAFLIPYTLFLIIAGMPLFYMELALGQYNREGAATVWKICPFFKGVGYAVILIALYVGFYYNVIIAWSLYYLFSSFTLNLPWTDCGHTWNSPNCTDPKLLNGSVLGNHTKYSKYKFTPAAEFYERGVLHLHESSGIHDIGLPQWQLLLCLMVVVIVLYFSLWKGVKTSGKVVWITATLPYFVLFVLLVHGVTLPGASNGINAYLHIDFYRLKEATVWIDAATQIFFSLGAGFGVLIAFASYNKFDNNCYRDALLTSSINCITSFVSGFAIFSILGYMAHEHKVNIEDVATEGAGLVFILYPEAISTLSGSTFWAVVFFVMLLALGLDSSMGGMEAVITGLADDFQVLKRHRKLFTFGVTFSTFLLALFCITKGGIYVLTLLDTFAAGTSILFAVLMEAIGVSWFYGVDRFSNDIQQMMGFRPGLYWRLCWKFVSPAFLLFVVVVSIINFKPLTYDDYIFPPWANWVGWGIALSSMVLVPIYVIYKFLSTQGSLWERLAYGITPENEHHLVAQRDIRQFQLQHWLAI
T10 sequence (P41595 whole entry): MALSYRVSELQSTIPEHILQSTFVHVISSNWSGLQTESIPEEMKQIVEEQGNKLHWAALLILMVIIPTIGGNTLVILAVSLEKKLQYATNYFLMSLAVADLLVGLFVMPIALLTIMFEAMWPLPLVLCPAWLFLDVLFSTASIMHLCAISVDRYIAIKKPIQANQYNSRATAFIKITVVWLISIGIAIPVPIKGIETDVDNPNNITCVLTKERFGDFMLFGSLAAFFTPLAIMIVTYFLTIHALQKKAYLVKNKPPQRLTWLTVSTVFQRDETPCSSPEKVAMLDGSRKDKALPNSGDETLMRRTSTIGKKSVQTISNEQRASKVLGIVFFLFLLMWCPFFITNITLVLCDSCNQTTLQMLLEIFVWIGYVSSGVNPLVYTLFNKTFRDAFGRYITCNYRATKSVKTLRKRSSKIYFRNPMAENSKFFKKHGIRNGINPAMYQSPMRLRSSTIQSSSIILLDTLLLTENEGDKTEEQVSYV
T12 sequence (P06239 whole entry): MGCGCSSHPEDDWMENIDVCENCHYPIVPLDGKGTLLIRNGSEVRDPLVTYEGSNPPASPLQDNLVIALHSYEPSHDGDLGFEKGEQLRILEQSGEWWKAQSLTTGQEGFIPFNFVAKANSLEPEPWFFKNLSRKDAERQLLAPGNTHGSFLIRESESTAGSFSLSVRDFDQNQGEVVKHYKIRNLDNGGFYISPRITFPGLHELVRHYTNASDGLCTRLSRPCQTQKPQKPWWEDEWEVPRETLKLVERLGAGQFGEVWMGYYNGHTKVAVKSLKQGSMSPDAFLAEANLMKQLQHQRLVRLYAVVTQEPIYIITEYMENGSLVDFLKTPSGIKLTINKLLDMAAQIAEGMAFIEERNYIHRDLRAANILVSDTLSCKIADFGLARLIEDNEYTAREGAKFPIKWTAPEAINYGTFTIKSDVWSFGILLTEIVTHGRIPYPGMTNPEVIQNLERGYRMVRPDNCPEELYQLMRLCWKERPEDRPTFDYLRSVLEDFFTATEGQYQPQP
T9 sequence (P25021 whole entry): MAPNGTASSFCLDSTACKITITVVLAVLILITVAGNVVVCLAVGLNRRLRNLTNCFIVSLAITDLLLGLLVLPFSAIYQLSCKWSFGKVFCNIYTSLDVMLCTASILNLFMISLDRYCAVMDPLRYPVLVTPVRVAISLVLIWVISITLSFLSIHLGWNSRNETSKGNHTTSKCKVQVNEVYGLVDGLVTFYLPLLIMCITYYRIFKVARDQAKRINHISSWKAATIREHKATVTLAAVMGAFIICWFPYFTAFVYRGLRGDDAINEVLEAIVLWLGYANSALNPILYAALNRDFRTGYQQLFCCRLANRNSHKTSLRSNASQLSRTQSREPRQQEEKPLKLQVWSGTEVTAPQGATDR

Compound: CCS(=O)(=O)N(C)[C@H]1c2cc(C#N)ccc2OC(C)(C)[C@@H]1O [293B, reference compound]
- Antagonist Reference Compounds % Inh [1]: 90.96%

Compound: CCN(CC)CCOC(=O)C(c1ccccc1)c1ccccc1 [Adiphenine, reference compound]
- IC50 [2]: 547 nM

Compound: c1ccc2cc([C@]34CNC[C@H]3C4)ccc2c1 [Centanafadine, reference compound]
- IC50 [3]: 126 nM
- IC50 [4]: 139 nM
- IC50 [5]: 144 nM

Compound: NC(CCCP(=O)(O)O)C(=O)O [D-AP5, reference compound]
- Antagonist Reference Compounds % Inh ([6]; NR1/NR2B, antagonist mode): 87.44%

Compound: CC[C@H](C)[C@H](NC(=O)[C@H](CC(=O)O)NC(=O)[C@H](CC(C)C)NC(=O)[C@H](Cc1cnc[nH]1)NC(=O)[C@@H]1CSSC[C@H](N)C(=O)N[C@@H](CO)C(=O)N[C@H]2CSSC[C@H](NC(=O)[C@H](CCC(=O)O)NC(=O)[C@H](CCCCN)NC(=O)[C@H](CC(=O)O)NC(=O)[C@H](CC(C)C)NC(=O)[C@H](Cc3c[nH]c4ccccc34)NC(=O)[C@H](CO)NC(=O)[C@H](CO)NC2=O)C(=O)N[C@@H](C(C)C)C(=O)N[C@@H](Cc2ccc(O)cc2)C(=O)N[C@@H](Cc2ccccc2)C(=O)N1)C(=O)N[C@H](C(=O)N[C@@H](Cc1c[nH]c2ccccc12)C(=O)O)[C@@H](C)CC [Endothelin 2, reference compound] (H-CSCSSWLDKECVYFCHLDIIW-OH; disulfide 1-15, 3-11)
- EC50 [7]: 1.89 nM

Compound: NCC(=O)O [Glycine, reference compound]
- EC50 ([6]; read-out: Agonist Reference Compounds EC50): 132 nM

Compound: CCCCCN(CCCOC)C(=O)C(CCC(=O)O)NC(=O)c1ccc(Cl)c(Cl)c1 (stereo not drawn) [Loxiglumide, reference compound]
- IC50 [8]: 353 nM

Compound: CCCNS(=O)(=O)Nc1ncnc(OCCOc2ncc(Br)cn2)c1-c1ccc(Br)cc1 [Macitentan, reference compound]
- IC50 ([7]; ETA, antagonist mode, read-out: Antagonist Reference Compound IC50): 3.29 nM

Compound: CNC(=C[N+](=O)[O-])NCCSCc1csc(CN(C)C)n1 [Nizatidine, reference compound]
- IC50 [9]: 112 nM

Compound: CC(C)c1cc(-c2ccc(F)c3ccccc23)nc(N)n1 [RS-127445, reference compound]
- IC50 [10]: 0.972 nM

Compound: COc1ccc2[nH]cc(C3=CCNCC3)c2c1 [RU 24969, reference compound]
- EC50 [11]: 4.25 nM

Compound: Cc1cc(-c2cc(O)ccc2Cl)cc2nnc(Nc3ccc(OCCN4CCCC4)cc3)nc12 [TG 100572, reference compound]
- IC50 [12]: 0.76 nM

Compound: O=c1c2c3nc(n2Cc2ccc(Cl)cc2)Oc2cccc(c2)OCCCCCn3c(=O)n1CCCO [compound 5]
- IC50 [13]: 28.4 nM

Compound: O=c1c2c3nc(n2Cc2ccc(Cl)cc2)Oc2cccc(c2)OCCCCCCn3c(=O)n1CCCO [compound 6]
- IC50 [13]: 1.1 nM

Compound: O=c1c2c3nc(n2Cc2ccc(Cl)cc2)Oc2cccc(c2)OCCCCCCCn3c(=O)n1CCCO [compound 7]
- IC50 [13]: 19.2 nM

Compound: O=c1c2c3nc(n2Cc2ccc(Cl)cc2)Oc2cc(ccc2Cl)OCCCCCCn3c(=O)n1CCCO [compound 8]
- IC50 [13]: 89.1 nM
- fold decrease in activity (vs compound 6) ([13]; calcium flux, SAR): about 90 fold

Compound: O=c1c2c3nc(n2Cc2ccc(Cl)cc2)Oc2ccc(Cl)c(c2)OCCCCCCn3c(=O)n1CCCO [compound 9]
- IC50 [13]: 97.5 nM
- fold decrease in activity (vs compound 6) ([13]; calcium flux, SAR): about 90 fold

Compound: O=c1c2c3nc(n2Cc2ccc(Cl)cc2)Oc2cncc(c2)OCCCCCCn3c(=O)n1CCCO [compound 11]
- IC50 [13]: 0.08 nM
- fold increase in activity (vs compound 6) ([13]; calcium flux, SAR): about 10 fold

Compound: CCCn1c2nc3c1c(=O)n(CCCO)c(=O)n3CCCCCCOc1cccc(c1)O2 [compound 12]
- IC50 [13]: 3500 nM
- fold decrease in activity (vs compound 6) ([13]; calcium flux, SAR): over 1000 fold

Compound: O=c1c2c3nc(n2CCC(F)(F)F)Oc2cccc(c2)OCCCCCCn3c(=O)n1CCCO [compound 13]
- IC50 [13]: 1200 nM
- fold decrease in activity (vs compound 6) ([13]; calcium flux, SAR): over 1000 fold

Compound: O=c1c2c3nc(n2Cc2nccs2)Oc2cccc(c2)OCCCCCCn3c(=O)n1CCCO [compound 14]
- IC50 [13]: 1500 nM
- fold decrease in activity (vs compound 6) ([13]; calcium flux, SAR): over 1000 fold

Compound: O=c1c2c3nc(n2Cc2ncco2)Oc2cccc(c2)OCCCCCCn3c(=O)n1CCCO [compound 15]
- IC50 [13]: > 10000 nM
- fold decrease in activity (vs compound 6) ([13]; calcium flux, SAR): over 1000 fold

Compound: O=c1c2c3nc(n2Cc2cccc(Cl)c2)Oc2cccc(c2)OCCCCCCn3c(=O)n1CCCO [compound 16]
- IC50 [13]: 1.8 nM
- TRPC5 inhibitory activity in words (SAR) ([13]; calcium flux): tolerated

Compound: O=C1NCCCCCn2c(=O)n(CCCO)c(=O)c3c2nc(n3Cc2ccc(Cl)cc2)Oc2cccc1c2 [compound 17]
- IC50 [13]: > 10000 nM
- TRPC5 inhibitory activity in words (SAR) ([13]; calcium flux): completely abolishing the activity

Compound: O=c1c2c3nc(n2Cc2ccc(Cl)cc2)Oc2cccc(c2)COCCOCCn3c(=O)n1CCCO [compound 18]
- IC50 [13]: 170 nM
- fold decrease in activity (vs compound 6) ([13]; calcium flux, SAR): 100 fold

Compound: O=c1c2c3nc(n2Cc2ccc(Cl)cc2)Oc2cccc(c2)OCCNCCCn3c(=O)n1CCCO [compound 19]
- IC50 [13]: 840 nM
- TRPC5 inhibitory activity in words (SAR) ([13]; calcium flux): reduced activity

Compound: CC(C)(O)CCn1c(=O)c2c3nc(n2Cc2ccc(Cl)cc2)Oc2cccc(c2)OCCCCCCn3c1=O [compound 20]
- IC50 [13]: 10000 nM

Compound: CC(O)CCn1c(=O)c2c3nc(n2Cc2ccc(Cl)cc2)Oc2cccc(c2)OCCCCCCn3c1=O (stereo not drawn) [compound 21]
- IC50 [13]: 10 nM
- TRPC5 inhibitory activity in words (SAR) ([13]; calcium flux): tolerated

Compound: CC(CO)Cn1c(=O)c2c3nc(n2Cc2ccc(Cl)cc2)Oc2cccc(c2)OCCCCCCn3c1=O (stereo not drawn) [compound 22]
- IC50 [13]: 220 nM

Compound: O=c1c2c3nc(n2Cc2ccc(Cl)cc2)Oc2cccc(c2)OCCCCCCn3c(=O)n1CC(O)CO (stereo not drawn) [compound 23]
- IC50 [13]: 790 nM

Compound: O=c1c2c3nc(n2Cc2ccc(Cl)cc2)Oc2cccc(c2)OCCCCCCn3c(=O)n1CC(F)(F)CO [compound 24]
- IC50 [13]: 440 nM
